Values joined by “and” are separate entries in the source; they are usually repeats but may differ in a detail not shown here. Identical values can stand only once.
Columns and labels:
5-HT2A receptor = target: T1, 5-HT2A receptor (Homo sapiens, UniProt P28223); assay: 5-HT2A functional assay (Fluo-4 calcium, FDSS); format: cell-based
T1 construct: expressed in transfected cells
Description: Cells with inducible expression of target receptor were cultured in 175‐cm^2 flasks until ≈80% confluence, washed once with phosphate‐buffered saline (PBS), and dissociated using 0.25% trypsin–EDTA. After neutralization with culture medium and centrifugation (800 rpm, 3 min), the cells were resuspended, counted, and seeded onto poly‐D‐lysine‐coated 96‐well black plates at a density of 4 × 10^4 cells/well. Expression of the target receptor was induced with 1 µg mL^−1 doxycycline. After 30 min at room temperature, the plates were incubated at 37 °C, 5% CO2 for 18−24 h until reaching ≈90% confluence. The medium was replaced with Ca^2⁺‐free extracellular buffer, washed once, and incubated with Fluo‐4 AM for 60 min at 37 °C in the dark. After washing twice with extracellular buffer, extracellular buffer was added (80 µL/well), and the cells were incubated for an additional 20 min at room temperature before fluorescence recording. Real‐time fluorescence changes were recorded using an FDSS/µCell system at 480 nm excitation and 540 nm emission with a sampling rate of 1 Hz. After a 10‐s baseline, the test compounds were added (20 µL/well), and fluorescence was recorded for 180 s. Subsequently, […] was added (20 µL/well), and the signals were monitored for a total of 360 s.
The agonistic effect (%) of compounds was calculated as follows: (1) Agonist%=Rcompound−Rcontrol/Rcontrol×100% where R control is the maximal fluorescence ratio after the addition of 0.5% DMSO and R compoundis the ratio obtained after compound treatment. Fluorescence response curves and EC50 values were used to evaluate the agonistic potency. The extracellular (Ca^2+‐free) buffer contained (in mM): 140 NaCl, 5 KCl, 1 MgCl2, 10 glucose, 10 HEPES, 2 probenecid; pH adjusted to 7.4 with NaOH.

C57BL/6J mice after CSDS = assay: Chronic social defeat stress (CSDS) model, sucrose preference test; format: in vivo; settings: single i.p. injection 10 mg kg−1
Description: The 10‐day CSDS paradigm was conducted as previously described.^[ [24] ^] CD‐1 aggressive mice were singly housed in defeat cages on one side of a perforated plexiglass partition 24 h before the defeat session. Experimental C57BL/6J mice were placed daily on the resident cage side of a novel CD‐1 aggressor that rapidly initiated a physical attack on the intruder. After 10‐min of social defeat, the intruder mice were housed on the opposite side of the partition within a shared home cage, experiencing further sensory contact for the subsequent 24 h. In contrast, control mice were maintained in their home cages and allowed to explore the empty defeat cages for 10 min each day.
Mice were individually housed with two identical bottles containing either 1% sucrose solution or tap water for 24 h. The bottles were then replaced to eliminate potential positional bias, followed by an additional 24‐h period with the same solutions. Subsequently, the mice were provided with tap water for 24 h. During the experimental phase, new bottles filled with either 1% sucrose solution or tap water were presented for 24 h, and the bottles were changed every 12 h. The bottles were weighed both before and after the 24‐h test to assess consumption of each solution.

[1] = target: T2, DAT (dopamine transporter) (Homo sapiens, UniProt Q01959); assay: DAT functional assay (fluorescent neurotransmitter transporter uptake); format: cell-based; parameters: DAT inhibition, replicates: unit not given here
T2 construct: expressed in transfected cells
T2 sequence (Q01959 whole entry): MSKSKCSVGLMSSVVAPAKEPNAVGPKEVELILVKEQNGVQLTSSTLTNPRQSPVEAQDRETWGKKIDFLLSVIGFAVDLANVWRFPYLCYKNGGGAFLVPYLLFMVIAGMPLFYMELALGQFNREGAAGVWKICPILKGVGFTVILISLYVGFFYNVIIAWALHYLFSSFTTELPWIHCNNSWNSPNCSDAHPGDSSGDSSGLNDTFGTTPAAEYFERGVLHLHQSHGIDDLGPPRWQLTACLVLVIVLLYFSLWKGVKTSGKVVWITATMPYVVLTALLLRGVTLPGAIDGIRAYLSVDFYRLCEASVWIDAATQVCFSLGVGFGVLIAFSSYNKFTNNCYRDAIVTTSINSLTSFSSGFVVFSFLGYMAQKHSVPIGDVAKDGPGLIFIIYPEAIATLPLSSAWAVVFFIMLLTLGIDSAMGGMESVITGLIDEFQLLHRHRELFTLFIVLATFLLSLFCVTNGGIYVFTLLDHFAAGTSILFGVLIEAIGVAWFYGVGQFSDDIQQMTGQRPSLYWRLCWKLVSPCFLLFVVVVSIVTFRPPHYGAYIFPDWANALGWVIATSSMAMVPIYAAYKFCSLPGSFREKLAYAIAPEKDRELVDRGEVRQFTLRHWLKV
Description: The 5‐HTT/DAT functional assays were commissioned by Elsevier Science and Technology Co., Ltd. (Beijing). A fluorescence‐based neurotransmitter assay was conducted using a Neurotransmitter Transporter Uptake Assay Kit (Molecular Devices, R8174), according to the manufacturer's protocol. Flp‐in T‐rex 293 cells transiently expressing the human norepinephrine transporter and HEK293 cells stably expressing the human dopamine or serotonin transporters were seeded in PDL‐coated 384‐well plates and incubated overnight. Subsequently, the medium was removed, and the cells were treated with 16 µL of compounds diluted in assay buffer for 0.5 h at 37 °C. Centanafadine and 0.1% DMSO served as positive and negative controls, respectively. Then, 16 µL of dye mix prepared in 1× Hanks’ Balanced Salt Solution was added to each well and incubated at 37 °C for 1 h. Finally, the data point was acquired via a fluorescence plate reader with excitation at 450 nm and emission at 528 nm.

T1 sequence (P28223 whole entry): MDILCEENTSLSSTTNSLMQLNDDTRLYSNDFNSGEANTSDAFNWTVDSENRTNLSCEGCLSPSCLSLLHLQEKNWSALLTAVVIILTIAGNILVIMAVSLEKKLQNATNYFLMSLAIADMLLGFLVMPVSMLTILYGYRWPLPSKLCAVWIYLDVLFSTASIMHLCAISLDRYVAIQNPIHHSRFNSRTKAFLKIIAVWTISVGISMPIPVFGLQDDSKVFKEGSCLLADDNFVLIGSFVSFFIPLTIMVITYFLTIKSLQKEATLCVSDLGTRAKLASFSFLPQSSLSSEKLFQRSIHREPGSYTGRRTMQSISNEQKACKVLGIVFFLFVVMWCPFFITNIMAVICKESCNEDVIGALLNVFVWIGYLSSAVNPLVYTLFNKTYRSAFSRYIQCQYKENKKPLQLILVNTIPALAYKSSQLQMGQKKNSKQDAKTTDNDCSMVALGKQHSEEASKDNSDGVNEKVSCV

c1ccc2c(c1)oc1ccc(Nc3ccnc(NCCCN4CCOCC4)n3)cc12 [JX3212, N^4-(dibenzo[b,d]furan-2-yl)-N^2-(3-morpholinopropyl)pyrimidine-2,4-diamine]
EC50 (5-HT2A receptor; agonistic effect): > 60 µM
activation at 60 µM (5-HT2A receptor; read-out: 5-HT2A agonistic effect, replicates, concentration 60 (presumably µM)): 61.8%
Emax (5-HT2A receptor; read-out: 5-HT2A max activation%): 58.6%
CSDS: sucrose preference in SPT (in words) (C57BL/6J mice after CSDS): nonsignificant increase in the sucrose preference ratio
IC50 [1]: 5.2 µM
DAT inhibition, replicates ([1]; concentration 3): -3.23 and -17.79
DAT inhibition, replicates ([1]; concentration 10): -5 and -8.74
DAT inhibition, replicates ([1]; concentration 30): 1.89 and -0.08
DAT inhibition, replicates ([1]; concentration 100): -1.46 and -1.85
DAT inhibition, replicates ([1]; concentration 300): -3.23 and -0.87
DAT inhibition, replicates ([1]; concentration 1000): 32
DAT inhibition, replicates ([1]; concentration 3000): 70.17 and 28.06
DAT inhibition, replicates ([1]; concentration 10000): 80.01 and 56.79
DAT inhibition, replicates ([1]; concentration 30000): 99.88 and 90.83
DAT inhibition, replicates ([1]; concentration 100000 (unit not given)): 110.9 and 109.92

Source: PMC12903969, “Discovery of a Novel and Potent Kir4.1 Inhibitor as a Safe and Rapid‐Onset Antidepressant Agent in Mice” (Advanced Science, 2025)
